The source of these data is ChEMBL document CHEMBL1148058, “Antibacterial triterpenoid acids from Dillenia papuana” (1994).

What all share (format): functional
For assay [1], the system named is Bacillus subtilis. The experiment in a line: Antibacterial activity against Bacillus subtilis ATCC 6633.
In assay [2] the test system is Escherichia coli. Nature of the assay: Antibacterial activity against Escherichia coli ATCC 25922.
For assay [3], the system named is Micrococcus luteus. Nature of the assay: Antibacterial activity against Micrococcus luteus ATCC 9341.

Regarding `CC1(C)C(=O)[C@H](O)C[C@]2(C)[C@H]3CC=C4[C@@H]5C[C@@](C)(C(=O)O)CC[C@]5(C)CC[C@@]4(C)[C@]3(C)CC[C@@H]12` [DILLENIC ACID A], the MIC in assay [1] turned out to be 2.4 µg; in assay [2], 2.4 µg; in assay [3] it was 1.2 µg.

As for `CC1(C)[C@@H](O)C(=O)C[C@]2(C)[C@H]3CC=C4[C@@H]5C[C@@](C)(C(=O)O)CC[C@]5(C)CC[C@@]4(C)[C@]3(C)CC[C@@H]12` [DILLENIC ACID B], the figures for the MIC in assay [1], in assay [2] and in assay [3] were 2 µg, 1 µg and 1 µg, respectively.

As for `O=C(N[C@H](CO)[C@H](O)c1ccc([N+](=O)[O-])cc1)C(Cl)Cl` [CHLORAMPHENICOL], the figures for the MIC in assay [1], in assay [2] and in assay [3] were 0.1 µg, 0.04 µg and 0.04 µg, respectively.

Take `CC1(C)C(=O)C=C[C@]2(C)[C@H]3CC=C4[C@@H]5C[C@@](C)(C(=O)O)CC[C@]5(C)CC[C@@]4(C)[C@]3(C)CC[C@@H]12`: the MIC in assay [1], in assay [2] and in assay [3] was 1 µg throughout.

Consider `CC1(C)C(=O)C[C@H](O)[C@]2(C)[C@H]3CC=C4[C@@H]5C[C@@](C)(C(=O)O)CC[C@]5(C)CC[C@@]4(C)[C@]3(C)CC[C@@H]12` [DILLENIC ACID C], for which the MIC in assay [1] is 2 µg; in assay [2] it was 5 µg; in assay [3], 2 µg.
